Reference: patent US4616003A, “N^6 -dihydroxypropyladenosines” (Warner-Lambert Company, priority 1985, dated 1986)
Read-outs that look alike come from different tables or passages of the source.

Legend:
adenosine A2 receptor = molecular target: T1, adenosine A2 receptor (Rattus norvegicus, UniProt P30543); assay: Adenosine A2 receptor binding (RBA-2), displacement of [3H]NECA
T1 construct: Brains were thawed and then kept on ice while the striata were dissected out; tissue Pel-Freez (Rogers, Ark.); host or cells: rat striatum (Sprague-Dawley brains; Long-Evans gave essentially identical results)
Procedure: Brains from 200-500 g mixed sex Sprague-Dawley rats were purchased from Pel-Freez (Rogers, Ark.). […] Brains were thawed and then kept on ice while the striata were dissected out. […] The suspension was centrifuged at 50,000 xg for ten minutes, the supernatant discarded, the pellet resuspended in 10 vol ice-cold Tris as above, recentrifuged, resuspended at 1 g/5 ml, and stored in plastic vials at -70° C. […] When needed, tissue was thawed at room temperature, disrupted in a Polytron, and kept on ice until used.
All incubations were for 60 minutes at 25° C. in 12×75 mm glass tubes containing 1 ml Tris with 5 mg original tissue weight of rat weight of rat striatal membranes, 4 nM [^3 H]-N-ethyl adenosine-5'-carboxamide ([^3 H]NECA), 50 nM N^6 -cyclopentyladenosine (to eliminate A1 receptor binding), 10 mM MgCl2, 0.1 units/ml of adenosine deaminase and 1% dimethylsulfoxide. N^6 -Cyclopentyladenosine was dissolved at 10 mM in 0.02N HCl and diluted in Tris. […] Test compounds were dissolved at 10 mM in dimethylsulfoxide on the same day as the experiment, and diluted in dimethylsulfoxide to 100× the final incubation concentration. […] [^3 H]NECA was diluted to 40 nM in Tris. The membrane suspension (5 mg/0.79 ml) contained sufficient MgCl2 and adenosine deaminase to give 10 mM and 0.1 units/ml, respectively, final concentration in the incubation. […] After all additions, the rack of tubes was vortexed, and the tubes were then incubated for 60 min at 25° C. in a shaking water bath. The rack of tubes was vortexed an additional time halfway through the incubation.
Incubations were terminated by filtration through 2.4 cm GF/B filters under reduced pressure. Each tube was filtered as follows: the contents of the tube were poured onto the filter, 4 ml of ice-cold Tris were added to the tube and the contents poured onto the filter, and the filter was washed twice with 4 ml of ice-cold Tris. The filtration was complete in about twelve seconds.
Nonspecific binding was defined as binding in the presence of 100 μM N^6 -cyclopentyladenosine, and specific binding was defined as total binding minus nonspecific binding. The IC50 was calculated by weighted nonlinear least squares curve-fitting to the mass-action equation. [formula] where Y is cpm bound
T is cpm total binding without drug
S is cpm specific binding without drug
D is the concentration of drug and
K is the IC50 of the drug
Weighting factors were calculated under the assumption that the standard deviation was proportional to the predicted value of Y. Nonspecific binding was treated as a very large (infinite) concentration of drug in the computer analysis.

Swiss-Webster male mice = assay: Mouse Activity and Screen Test (MAST): inhibition of spontaneous locomotor activity; type: in vivo; details: 1 hour prior to testing
Procedure: Nine unfasted Swiss-Webster male mice weighing 20-30 g are equally divided into three groups for each drug dose to be tested. That is, data for each dose level was generated by three separate groups of three mice each. A minimum of three dose levels (10, 30, and 100 mg/kg) are tested for each drug. Treatments are administered intraperitoneally one hour prior to testing. All dosages are calculated as parent compound and given in volumes of 10 ml/kg. Compounds are dissolved or suspended in 0.2% Methocel. Control animals are injected with Methocel. Immediately following the screen test, the final phase of testing is initiated by placing each group of three mice in one actophotometer (Life Sciences, 22, 1067-1076, 1978). The actophotometer consists of a cylindrical chamber whose center is occupied by another cylinder which contains the illumination for six photocells located on the perimeter of the chamber. Six light-beam interruptions equal one count. Locomotor activity is recorded by computer at ten minute intervals for 60 minutes. Data: The data obtained from the screen test are expressed as percent of mice falling off the screen. Data derived from locomotor activity of drug treated mice are compared to the activity of vehicle treated animals and are expressed as percent inhibition of spontaneous locomotion. All percentages reported for inhibition of locomotion (LI) are based upon data accumulated for one hour. Both phases of testing are graded: A=60-100%; C=31-59%; and N=0-30%. An overall dose rating is obtained by the following criteria: […]

[1] = 4 nM [3H]NECA, 50 nM N6-cyclopentyladenosine, rat striatal membranes, read-out: RBA-2 (IC50, adenosine A2 receptor affinity)

T1 sequence (P30543 whole entry): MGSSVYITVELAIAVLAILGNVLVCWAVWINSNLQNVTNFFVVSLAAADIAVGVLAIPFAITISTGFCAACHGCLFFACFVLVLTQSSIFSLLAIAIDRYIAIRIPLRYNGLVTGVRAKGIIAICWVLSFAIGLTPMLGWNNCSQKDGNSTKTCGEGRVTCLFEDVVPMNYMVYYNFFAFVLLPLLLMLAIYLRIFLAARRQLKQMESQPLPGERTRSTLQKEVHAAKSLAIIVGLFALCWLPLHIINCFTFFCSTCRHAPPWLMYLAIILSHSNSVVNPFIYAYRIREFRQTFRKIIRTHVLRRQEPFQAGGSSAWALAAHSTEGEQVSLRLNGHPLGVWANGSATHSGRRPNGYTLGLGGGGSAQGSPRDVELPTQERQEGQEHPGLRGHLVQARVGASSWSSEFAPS

SMILES	IC50 (adenosine A2 receptor; [1])	Inhibition of Mouse Locomotor Activity (Swiss-Webster male mice; 0.1 mg/kg i.p.)	Inhibition of Mouse Locomotor Activity (Swiss-Webster male mice; 0.3 mg/kg i.p.)	Inhibition of Mouse Locomotor Activity (Swiss-Webster male mice; 1.0 mg/kg i.p.)	Inhibition of Mouse Locomotor Activity (Swiss-Webster male mice; 3.0 mg/kg i.p.)	Inhibition of Mouse Locomotor Activity (Swiss-Webster male mice; 10 mg/kg i.p.)	Inhibition of Mouse Locomotor Activity (Swiss-Webster male mice; 30 mg/kg i.p.)	Inhibition of Mouse Locomotor Activity (Swiss-Webster male mice; 100 mg/kg i.p.)	IC50 (adenosine A2 receptor)	Inhibition of Mouse Locomotor Activity (Swiss-Webster male mice; 0.03 mg/kg i.p.)
OCC(O)CNc1ncnc2c1ncn2[C@@H]1O[C@H](CO)[C@@H](O)[C@@H]1O (stereo partly drawn) [Example 1, (R,S)-N^6 [2,3-Dihydroxypropyl]adenosine]	19 µM	46%	96%	97%	99%	100%	100%	99%	–	–
OC[C@@H](O)CNc1ncnc2c1ncn2[C@@H]1O[C@H](CO)[C@@H](O)[C@H]1O [Example 3]	–	-18%	0%	92%	97%	97%	100%	–	20 µM	-19%
CC1(C)OCC(CNc2ncnc3c2ncn3[C@@H]2O[C@H](CO)[C@@H](O)[C@H]2O)O1 (stereo partly drawn) [Example 4, (R,S)-N^6-[2,3Dihydroxypropylisopropylidene]adenosine]	24 µM	–	6%	27%	23%	96%	93%	99%	–	–

Now from value to molecule, other results behind:

IC50 (adenosine A2 receptor; [1])	SMILES	Inhibition of Mouse Locomotor Activity (Swiss-Webster male mice; 0.1 mg/kg i.p.)	Inhibition of Mouse Locomotor Activity (Swiss-Webster male mice; 0.3 mg/kg i.p.)	Inhibition of Mouse Locomotor Activity (Swiss-Webster male mice; 1.0 mg/kg i.p.)	Inhibition of Mouse Locomotor Activity (Swiss-Webster male mice; 3.0 mg/kg i.p.)	Inhibition of Mouse Locomotor Activity (Swiss-Webster male mice; 10 mg/kg i.p.)	Inhibition of Mouse Locomotor Activity (Swiss-Webster male mice; 30 mg/kg i.p.)	Inhibition of Mouse Locomotor Activity (Swiss-Webster male mice; 100 mg/kg i.p.)	IC50 (adenosine A2 receptor)	Inhibition of Mouse Locomotor Activity (Swiss-Webster male mice; 0.03 mg/kg i.p.)
15 µM	CC1(C)OC[C@@H](CNc2ncnc3c2ncn3[C@@H]2O[C@H](CO)[C@@H](O)[C@H]2O)O1 [Example 5, (R)-N^6-[2,3-Dihydroxypropylisopropylidene]-adenosine]	–	40%	39%	69%	48%	98%	–	–	–
75 µM	Nc1nc(NCC(O)CO)c2ncn([C@@H]3O[C@H](CO)[C@@H](O)[C@H]3O)c2n1 (stereo partly drawn) [Example 8]	–	56%	98%	98%	99%	100%	99%	–	–
